According to the NIST ThermoML archive (doi:10.1016/j.fluid.2014.10.002):
Several values for one entry are separate records, joined by “and”; a condition that tells them apart may be missing. Equal values may be shown once. Numbers after ± are expanded uncertainties.

Details: Liquid, Vibrating wire viscometry

CCCCC(CC)COC(=O)c1ccc(C(=O)OCC(CC)CCCC)c(C(=O)OCC(CC)CCCC)c1 (stereo unspecified) [tris(2-ethylhexyl) trimellitate]
viscosity (343.14 K, 49870 kPa): 53.82 ± 1.4 mPa·s and 53.79 ± 1.4 mPa·s | viscosity (343.14 K, 50340 kPa): 53.74 ± 1.4 mPa·s | viscosity (343.14 K, 50350 kPa): 53.88 ± 1.4 mPa·s | viscosity (343.14 K, 50360 kPa): 53.81 ± 1.4 mPa·s and 53.95 ± 1.4 mPa·s and 53.91 ± 1.4 mPa·s | viscosity (343.14 K, 65050 kPa): 68.46 ± 1.5 mPa·s | viscosity (343.14 K, 65060 kPa): 68.25 ± 1.5 mPa·s | viscosity (343.14 K, 65070 kPa): 68.22 ± 1.5 mPa·s | viscosity (343.14 K, 65080 kPa): 68.37 ± 1.5 mPa·s | viscosity (343.14 K, 65100 kPa): 68.38 ± 1.5 mPa·s | viscosity (343.15 K, 1040 kPa): 22.81 ± 0.5 mPa·s | viscosity (343.15 K, 1050 kPa): 22.74 ± 0.5 mPa·s | viscosity (343.15 K, 1060 kPa): 22.78 ± 0.5 mPa·s | viscosity (343.15 K, 1070 kPa): 22.74 ± 0.5 mPa·s | viscosity (343.15 K, 1090 kPa): 22.81 ± 0.5 mPa·s | viscosity (343.15 K, 2540 kPa): 23.48 ± 0.49 mPa·s and 23.4 ± 0.5 mPa·s | viscosity (343.15 K, 2580 kPa): 23.42 ± 0.49 mPa·s | viscosity (343.15 K, 4800 kPa): 24.49 ± 0.52 mPa·s | viscosity (343.15 K, 4820 kPa): 24.51 ± 0.52 mPa·s | viscosity (343.15 K, 4880 kPa): 24.44 ± 0.52 mPa·s | viscosity (343.15 K, 4900 kPa): 24.44 ± 0.52 mPa·s and 24.52 ± 0.52 mPa·s and 24.43 ± 0.52 mPa·s | viscosity (343.15 K, 7530 kPa): 25.82 ± 0.54 mPa·s | viscosity (343.15 K, 7590 kPa): 25.76 ± 0.54 mPa·s | viscosity (343.15 K, 7630 kPa): 25.78 ± 0.54 mPa·s | viscosity (343.15 K, 7650 kPa): 25.77 ± 0.54 mPa·s | viscosity (343.15 K, 10140 kPa): 27.08 ± 0.57 mPa·s | viscosity (343.15 K, 15040 kPa): 29.65 ± 0.63 mPa·s and 29.63 ± 0.63 mPa·s | viscosity (343.15 K, 15050 kPa): 29.64 ± 0.63 mPa·s | viscosity (343.15 K, 15060 kPa): 29.74 ± 0.63 mPa·s | viscosity (343.15 K, 15070 kPa): 29.73 ± 0.63 mPa·s | viscosity (343.15 K, 15090 kPa): 29.74 ± 0.63 mPa·s | viscosity (358.18 K, 2460 kPa): 14.15 ± 0.3 mPa·s | viscosity (358.18 K, 2470 kPa): 14.13 ± 0.3 mPa·s | viscosity (358.18 K, 2480 kPa): 14.11 ± 0.3 mPa·s | viscosity (358.18 K, 2490 kPa): 14.11 ± 0.3 mPa·s | viscosity (358.18 K, 2500 kPa): 14.16 ± 0.3 mPa·s | viscosity (358.18 K, 2530 kPa): 14.14 ± 0.3 mPa·s | viscosity (358.18 K, 4840 kPa): 14.65 ± 0.31 mPa·s | viscosity (358.18 K, 4860 kPa): 14.68 ± 0.31 mPa·s | viscosity (358.18 K, 4920 kPa): 14.69 ± 0.31 mPa·s | viscosity (358.18 K, 4960 kPa): 14.64 ± 0.31 mPa·s | viscosity (358.18 K, 4990 kPa): 14.64 ± 0.31 mPa·s | viscosity (358.18 K, 7360 kPa): 15.35 ± 0.32 mPa·s | viscosity (358.18 K, 7370 kPa): 15.37 ± 0.32 mPa·s | viscosity (358.18 K, 7390 kPa): 15.35 ± 0.32 mPa·s | viscosity (358.18 K, 7410 kPa): 15.34 ± 0.32 mPa·s | viscosity (358.18 K, 7420 kPa): 15.37 ± 0.32 mPa·s and 15.38 ± 0.32 mPa·s | viscosity (358.18 K, 10350 kPa): 16.11 ± 0.34 mPa·s | viscosity (358.18 K, 10380 kPa): 16.12 ± 0.34 mPa·s | viscosity (358.18 K, 10410 kPa): 16.11 ± 0.34 mPa·s | viscosity (358.18 K, 15320 kPa): 17.52 ± 0.37 mPa·s | viscosity (358.18 K, 20050 kPa): 18.99 ± 0.4 mPa·s | viscosity (358.18 K, 20070 kPa): 19.03 ± 0.4 mPa·s and 18.97 ± 0.4 mPa·s | viscosity (358.18 K, 20090 kPa): 18.99 ± 0.4 mPa·s | viscosity (358.18 K, 20120 kPa): 18.99 ± 0.4 mPa·s | viscosity (358.18 K, 20130 kPa): 19.05 ± 0.4 mPa·s | viscosity (358.18 K, 40240 kPa): 26.25 ± 0.55 mPa·s | viscosity (358.18 K, 40250 kPa): 26.27 ± 0.55 mPa·s | viscosity (358.18 K, 40260 kPa): 26.24 ± 0.55 mPa·s | viscosity (358.18 K, 40280 kPa): 26.21 ± 0.55 mPa·s | viscosity (358.18 K, 40290 kPa): 26.24 ± 0.55 mPa·s | viscosity (358.19 K, 1290 kPa): 13.79 ± 0.3 mPa·s | viscosity (358.19 K, 1330 kPa): 13.79 ± 0.3 mPa·s | viscosity (358.19 K, 1380 kPa): 13.85 ± 0.3 mPa·s | viscosity (358.19 K, 10470 kPa): 16.13 ± 0.34 mPa·s | viscosity (358.19 K, 15340 kPa): 17.51 ± 0.37 mPa·s | viscosity (358.19 K, 15360 kPa): 17.51 ± 0.37 mPa·s | viscosity (358.19 K, 15370 kPa): 17.52 ± 0.37 mPa·s | viscosity (358.19 K, 15390 kPa): 17.53 ± 0.37 mPa·s | viscosity (358.19 K, 15410 kPa): 17.54 ± 0.37 mPa·s | viscosity (358.19 K, 30310 kPa): 22.42 ± 0.47 mPa·s | viscosity (358.19 K, 30360 kPa): 22.4 ± 0.5 mPa·s | viscosity (358.19 K, 30380 kPa): 22.43 ± 0.47 mPa·s and 22.47 ± 0.47 mPa·s and 22.46 ± 0.47 mPa·s | viscosity (358.19 K, 50360 kPa): 30.62 ± 0.64 mPa·s | viscosity (358.19 K, 50380 kPa): 30.63 ± 0.64 mPa·s | viscosity (358.19 K, 50390 kPa): 30.61 ± 0.64 mPa·s | viscosity (358.19 K, 50400 kPa): 30.65 ± 0.65 mPa·s | viscosity (358.19 K, 50420 kPa): 30.65 ± 0.65 mPa·s | viscosity (358.19 K, 65540 kPa): 38.26 ± 0.81 mPa·s | viscosity (358.19 K, 65550 kPa): 38.23 ± 0.81 mPa·s | viscosity (358.19 K, 65570 kPa): 38.28 ± 0.81 mPa·s | viscosity (358.19 K, 65600 kPa): 38.23 ± 0.81 mPa·s | viscosity (358.19 K, 65610 kPa): 38.23 ± 0.81 mPa·s | viscosity (373.17 K, 1070 kPa): 8.988 ± 0.19 mPa·s and 8.981 ± 0.19 mPa·s and 8.984 ± 0.19 mPa·s | viscosity (373.17 K, 1080 kPa): 8.99 ± 0.19 mPa·s | viscosity (373.17 K, 2690 kPa): 9.227 ± 0.2 mPa·s | viscosity (373.17 K, 2720 kPa): 9.242 ± 0.2 mPa·s | viscosity (373.17 K, 2730 kPa): 9.241 ± 0.2 mPa·s | viscosity (373.17 K, 5100 kPa): 9.651 ± 0.2 mPa·s | viscosity (373.17 K, 5110 kPa): 9.649 ± 0.2 mPa·s and 9.654 ± 0.2 mPa·s | viscosity (373.17 K, 5120 kPa): 9.651 ± 0.2 mPa·s | viscosity (373.17 K, 5130 kPa): 9.669 ± 0.2 mPa·s | viscosity (373.17 K, 5140 kPa): 9.653 ± 0.2 mPa·s | viscosity (373.17 K, 7440 kPa): 10.06 ± 0.21 mPa·s | viscosity (373.17 K, 7470 kPa): 10.05 ± 0.21 mPa·s | viscosity (373.17 K, 7480 kPa): 10.03 ± 0.21 mPa·s | viscosity (373.17 K, 7500 kPa): 10.03 ± 0.21 mPa·s | viscosity (373.17 K, 10430 kPa): 10.53 ± 0.22 mPa·s | viscosity (373.17 K, 10450 kPa): 10.57 ± 0.22 mPa·s | viscosity (373.17 K, 15160 kPa): 11.29 ± 0.24 mPa·s | viscosity (373.17 K, 15180 kPa): 11.28 ± 0.24 mPa·s | viscosity (373.17 K, 15210 kPa): 11.32 ± 0.24 mPa·s and 11.33 ± 0.24 mPa·s and 11.27 ± 0.24 mPa·s | viscosity (373.17 K, 65290 kPa): 23.71 ± 0.5 mPa·s | viscosity (373.18 K, 2460 kPa): 9.209 ± 0.19 mPa·s and 9.224 ± 0.19 mPa·s and 9.213 ± 0.19 mPa·s | viscosity (373.18 K, 2470 kPa): 9.234 ± 0.19 mPa·s | viscosity (373.18 K, 2500 kPa): 9.245 ± 0.2 mPa·s | viscosity (373.18 K, 2710 kPa): 9.252 ± 0.2 mPa·s | viscosity (373.18 K, 10440 kPa): 10.57 ± 0.22 mPa·s | viscosity (373.18 K, 10450 kPa): 10.52 ± 0.22 mPa·s | viscosity (373.18 K, 10460 kPa): 10.56 ± 0.22 mPa·s | viscosity (373.18 K, 20250 kPa): 12.27 ± 0.26 mPa·s and 12.26 ± 0.26 mPa·s | viscosity (373.18 K, 20260 kPa): 12.27 ± 0.26 mPa·s | viscosity (373.18 K, 20270 kPa): 12.29 ± 0.26 mPa·s | viscosity (373.18 K, 20290 kPa): 12.3 ± 0.3 mPa·s | viscosity (373.18 K, 20320 kPa): 12.28 ± 0.26 mPa·s | viscosity (373.18 K, 29980 kPa): 14.31 ± 0.3 mPa·s | viscosity (373.18 K, 29990 kPa): 14.32 ± 0.3 mPa·s | viscosity (373.18 K, 30000 kPa): 14.27 ± 0.3 mPa·s | viscosity (373.18 K, 30010 kPa): 14.3 ± 0.3 mPa·s | viscosity (373.18 K, 30030 kPa): 14.28 ± 0.3 mPa·s | viscosity (373.18 K, 40130 kPa): 16.58 ± 0.35 mPa·s | viscosity (373.18 K, 40140 kPa): 16.57 ± 0.35 mPa·s | viscosity (373.18 K, 40150 kPa): 16.63 ± 0.35 mPa·s | viscosity (373.18 K, 40170 kPa): 16.61 ± 0.35 mPa·s | viscosity (373.18 K, 40190 kPa): 16.64 ± 0.35 mPa·s | viscosity (373.18 K, 50280 kPa): 19.18 ± 0.4 mPa·s | viscosity (373.18 K, 50290 kPa): 19.21 ± 0.4 mPa·s and 19.23 ± 0.41 mPa·s | viscosity (373.18 K, 50310 kPa): 19.17 ± 0.4 mPa·s | viscosity (373.18 K, 50320 kPa): 19.23 ± 0.41 mPa·s | viscosity (373.18 K, 65330 kPa): 23.7 ± 0.5 mPa·s | viscosity (373.18 K, 65350 kPa): 23.72 ± 0.5 mPa·s | viscosity (373.18 K, 65370 kPa): 23.68 ± 0.5 mPa·s
